These results are taken from BindingDB's records for doi:10.1007/s10822-022-00478-x (Roche Innovation Center Basel, F. Hoffmann-La Roche Ltd., 2022).

This assay has as its target cAMP and cAMP-inhibited cGMP 3',5'-cyclic phosphodiesterase 10A (Homo sapiens, UniProt Q9Y233). The assay can be described thus: PDE10A assay. As for the experimental part:
Compounds were diluted in 20 mM HEPES/NaOH (pH 7.5), 10 mM MgCl2 and 0.05 mg/ml bovine serum albumin. A fixed amount of 2 ng/well human PDE10A enzyme was added and incubated at room temperature for 15 min under agitation. The reaction was started by the addition of the substrate cocktail [3H]cGMP (Perkin Elmer NET337001MC, S.A. 13.5 Ci/mmol) / cGMP at a final concentration of 50 nM and incubated for an additional 15 min. The reaction was stopped by the addition of 0.5 mg/well of Y-Si SPA beads. The plates were shaken for 1 h, followed by a brief centrifugation (170 g for 1 min). The radioactivity bound to the beads was estimated using a TopCount (Perkin-Elmer). For the determination of IC50 values, a four parameters logistics equation was used. pIC50 is defined as − log10(IC50).
Take `COCCNC(=O)c1nc(C2CC2)cnc1Nc1cncnc1` [Roche-Dataset for PDE10A, Compound 946]: half-maximal inhibition (IC50) required 2540 nM.
Then `COc1cc(-c2nc3cc(NC(=O)c4c(C(=O)N5CCC5)cnn4C)ccn3n2)ccn1` [Roche-Dataset for PDE10A, Compound 185], with 4.73 nM; and `Cn1ncc(C(=O)O)c1C(=O)Nc1ccn2nc(-c3cccc(F)c3)nc2c1` [Roche-Dataset for PDE10A, Compound 380], with 25 nM.
Then `CNC(=O)c1cc(C(C)C)ccc1NC(=O)c1nc(C2CC2)cnc1Nc1cncnc1` [US8703768, 208], with 1.15 nM; and `CN(C)c1nc(/C=C/c2nc(Br)cs2)nc2ccc(Cl)cc12` [Roche-Dataset for PDE10A, Compound 612], with 1470 nM.
Then `O=C(NCCC(=O)N1CCOCC1)c1nc(C2CC2)cnc1Nc1cncnc1` [Roche-Dataset for PDE10A, Compound 591], with 1520 nM; and `O=C(Nc1ccnc(N2CCOCC2)c1)c1nc(C2CC2)cnc1Nc1cncnc1` [Roche-Dataset for PDE10A, Compound 815], with 8.56 nM; and `CN(C)c1nc(OCc2nc(-c3ccccc3)cn2C)nc2ccc(Cl)cc12` [Roche-Dataset for PDE10A, Compound 89], with 3.68 nM.
Regarding `Cn1ncc(C(=O)NCc2cccc(C(F)(F)F)n2)c1C(=O)Nc1ccn2cc(-c3ccccc3)nc2n1` [Roche-Dataset for PDE10A, Compound 1157], the IC50 (as a rule, the point on the concentration scale where inhibition reaches its midpoint) worked out at 4780 nM.
In the case of `CC(C)(O)CNC(=O)c1cc(C#N)ccc1NC(=O)c1nc(C2CC2)cnc1Nc1cncnc1` [US8703768, 262] it was 0.71 nM.
Then `CCOC(=O)c1cnn(C)c1C(=O)Nc1ccn2nc(-c3ccccc3OC)nc2c1` [Roche-Dataset for PDE10A, Compound 220], with 12 nM.
For `O=C(Nc1ccccc1)c1cccc(NC(=O)c2nc(C3CC3)ccc2Nc2cncnc2)c1` [Roche-Dataset for PDE10A, Compound 556], the midpoint of inhibition, the IC50, lay at 6.79 nM.
Then `CC(=O)Nc1cccc(NC(=O)c2nc(C3CC3)cnc2Nc2cncnc2)n1` [Roche-Dataset for PDE10A, Compound 1084], with 25 nM.
In turn, `Cn1ncc(NC(=O)c2c(C(=O)N3CCC3)cnn2C)c1C(=O)N1CCCCC1` [Roche-Dataset for PDE10A, Compound 1035] came in with an IC50 of 4330 nM.
As to `Cc1nn(C)c2nc(OCc3nc(-c4ccccc4)cn3C)ncc12` [Roche-Dataset for PDE10A, Compound 396], the IC50 stood at 107 nM.
Then `O=C(NCCc1cccc(C(F)(F)F)c1)c1nc(C2CC2)cnc1Nc1cncnc1` [Roche-Dataset for PDE10A, Compound 491], with 83 nM; and `O=C(NCCc1noc(-c2ccccc2)n1)c1nc(C2CC2)cnc1Nc1cncnc1` [Roche-Dataset for PDE10A, Compound 271], with 48 nM.
Turning to `CC(C)CNC(=O)c1c(NC(=O)c2c(C(=O)N3CCC3)cnn2C)cnn1C` [Roche-Dataset for PDE10A, Compound 1069], the IC50 is 462 nM.
Compound `COCc1cc(C(=O)Nc2ccn3nc(-c4ccccc4)nc3c2)n(C)n1` [Roche-Dataset for PDE10A, Compound 390] gave an IC50 of 87 nM.
`O=C(Nc1cc(-c2ccccn2)nn1C1CCOCC1)c1nc(C2CC2)ccc1Nc1cncnc1` [Roche-Dataset for PDE10A, Compound 24] gave an IC50 of 1.41 nM.
Compound `CN1CCN(c2cccc(NC(=O)c3nc(C4CC4)cnc3Nc3cncnc3)c2)CC1` [Roche-Dataset for PDE10A, Compound 741] displayed an IC50 of 71 nM.
Then `O=C(Nc1ccn(C2CC2)n1)c1nc(C2CC2)ccc1Nc1cncnc1` [Roche-Dataset for PDE10A, Compound 715], with 26 nM; and `COC(=O)c1cccc(NC(=O)c2nc(C3CC3)cnc2Nc2cncnc2)n1` [Roche-Dataset for PDE10A, Compound 1037], with 29 nM; and `Cc1ncc(C)n2nc(CCc3nc(N4CCNC4=O)nn3C)nc12` [Roche-Dataset for PDE10A, Compound 887], with 1060 nM.
Then `CN(C)C(=O)c1cc(NC(=O)c2nc(C3CC3)ccc2Nc2cncnc2)[nH]n1` [Roche-Dataset for PDE10A, Compound 748], with 1150 nM; and `Cc1nn2ccc(CCc3nc(N4CCCC4)nn3C)nc2c1C` [US9617271, 53], with 17 nM.
Then `COc1ccc(Cn2nc(CCc3nc4c(Cl)cc(Cl)c(C)n4n3)nc2N2CCCC2)cc1` [Roche-Dataset for PDE10A, Compound 37], with 2.58 nM.
Regarding `CNC(=O)c1cc2[nH]c(-c3ccccc3)nc2cc1NC(=O)c1cc(C)on1` [Roche-Dataset for PDE10A, Compound 557], 189 nM corresponded to half-maximal inhibition (IC50).
Compound `CN(C)C(=O)c1cnn(C)c1C(=O)Nc1ccn2nc(-c3ccnc(S(C)(=O)=O)c3)nc2c1` [Roche-Dataset for PDE10A, Compound 421] showed an IC50 of 8.81 nM.
In the case of `O=C(N[C@]12C[C@H]3C[C@H](C[C@H](C3)C1)C2)c1nc(C2CC2)cnc1Nc1cncnc1` [Roche-Dataset for PDE10A, Compound 1143] it was 788 nM; in that of `Cn1ncc(C(=O)N2CCC2)c1C(=O)Nc1ccn(Cc2ccncc2)n1` [Roche-Dataset for PDE10A, Compound 978], 192 nM; in that of `Cc1ncc(C)n2nc(/C=C/c3nc(N4C[C@@H]5C[C@H]6CN(C(=O)OC(C)(C)C)C[C@]65C4)nn3C)nc12` [Roche-Dataset for PDE10A, Compound 1066], 6130 nM.
Then `Cn1ncc(C(=O)N2CCC2)c1C(=O)Nc1ccn(C2CCCCC2)n1` [Roche-Dataset for PDE10A, Compound 1064], with 242 nM; and `Cc1noc(C(=O)Nc2ccc3cc(-c4ccccc4)nn3c2)c1Br` [Roche-Dataset for PDE10A, Compound 529], with 18 nM; and `Cc1c(Cl)cc(Cl)c2nc(CCc3nc4ncccn4n3)nn12` [Roche-Dataset for PDE10A, Compound 791], with 916 nM.
In the case of `O=C(Nc1cncc(OC(F)F)c1)c1nc(C2CC2)cnc1Nc1cncnc1` [Roche-Dataset for PDE10A, Compound 855] it was 134 nM; in that of `O=C(Nc1cnc(Cl)cn1)c1nc(C2CC2)ccc1Nc1cncnc1` [Roche-Dataset for PDE10A, Compound 1090], 146 nM; in that of `Cn1ncc(C(=O)N2CCC2)c1C(=O)Nc1ccc2nc(N3CCOCC3)nn2c1` [Roche-Dataset for PDE10A, Compound 412], 16 nM.
Compound `O=C(NCc1cocn1)c1nc(C2CC2)cnc1Nc1cncnc1` [Roche-Dataset for PDE10A, Compound 1089] yielded an IC50 of 1860 nM.
Then `CN(C(=O)c1cnn(C)c1C(=O)N[C@@H]1CCn2cc(-c3ccccc3)nc2C1)C1CC1` [Roche-Dataset for PDE10A, Compound 133], with 4.3 nM; and `CC1(CNC(=O)c2nc(C3CC3)cnc2Nc2cncnc2)COC1` [Roche-Dataset for PDE10A, Compound 1092], with 2980 nM.
Then `COc1ncc(C2CC2)nc1C(=O)Nc1ccn2nc(-c3ccccc3)nc2c1` [Roche-Dataset for PDE10A, Compound 514], with 17 nM; and `Cn1ncc(C(N)=O)c1C(=O)Nc1ccn2nc(-c3ccccc3)nc2c1` [Roche-Dataset for PDE10A, Compound 401], with 16 nM.
For the compound `COc1nc(OCc2nc(-c3ccccc3)cn2C)nc2ccc(Cl)cc12` [Roche-Dataset for PDE10A, Compound 198], the IC50 turned out to be 15 nM.
Then `CN1CCC(n2nc(-c3ccccn3)cc2NC(=O)c2nc(C3CC3)ccc2Nc2cncnc2)CC1` [US8470820, 43], with 4.15 nM; and `COCCNC(=O)c1cc2[nH]c(-c3ccccc3)nc2cc1NC(=O)c1ccnnc1` [Roche-Dataset for PDE10A, Compound 306], with 35 nM; and `CC(C)(NC(=O)c1nc(C2CC2)cnc1Nc1cncnc1)c1nnc(-c2cccnc2)o1` [Roche-Dataset for PDE10A, Compound 1006], with 1440 nM.
Then `Cn1cc(-c2ccncc2)c(C(=O)Nc2cc(-c3ccccn3)nn2C)n1` [Roche-Dataset for PDE10A, Compound 1102], with 124 nM.
In the case of `O=C(Nc1cc(-c2ccc(Cl)cn2)nn1CCO)c1nc(C2CC2)ccc1Nc1cncnc1` [US8470820, 26] it was 1.59 nM; in that of `Cc1ncc(C)n2nc(/C=C/c3nc(N4CCC[C@H]4CF)nn3C)nc12` [Roche-Dataset for PDE10A, Compound 691], 787 nM; in that of `Cc1cnccc1NC(=O)c1ccc2cc(-c3ccccc3)nn2c1` [Roche-Dataset for PDE10A, Compound 448], 563 nM.
With `Cc1c(Cl)cc(Cl)c2nc(CCc3nn(C)cc3Cl)nn12` [Roche-Dataset for PDE10A, Compound 861], the IC50 was determined as 333 nM.
In the case of `CCn1nccc1C(=O)Nc1cc2nc(-c3ccccc3)[nH]c2cc1C(=O)NC` [Roche-Dataset for PDE10A, Compound 482] it was 11 nM; in that of `Cc1cccc2c(=O)[nH]c(CCc3nc(-c4ccccc4)cn3C)nc12` [Roche-Dataset for PDE10A, Compound 74], 15 nM; in that of `O=C1c2ccccc2C(=O)N1CCc1nc(-c2cccnc2)no1` [Roche-Dataset for PDE10A, Compound 579], 16400 nM.
Then `COCCCNC(=O)c1nc(C2CC2)cnc1Nc1cncnc1` [Roche-Dataset for PDE10A, Compound 1027], with 944 nM.
As to `O=C(Nc1ccn2nc(-c3ccccc3)nc2c1)c1cc(Cl)ccn1` [Roche-Dataset for PDE10A, Compound 454], the IC50 was found to be 76 nM.
